Results as given in US20240083857A1, “2-Methyl-Quinazolines” (Bayer Pharma Aktiengesellschaft, priority 2017, published 2024).
Read-outs that look alike come from different tables or passages of the source.

Columns and labels:
[1] = molecular target: human SOS1 (nucleotide exchange of K-Ras^G12C) (Homo sapiens, UniProt Q07889); test: Biochemical assay 2: K-Ras^G12C activation assay by hSOS1 at high GTP concentration (HTRF); conditions: high GTP; read-out: Assay 2 (KRAS-Activation by SOS high GTP) activity expressed as IC50
[2] = molecular target: Epidermal Growth Factor Receptor (EGFR) (Homo sapiens (Human), UniProt P00533); test: EGFR kinase assay (TR-FRET); type: biochemical; conditions: read-out: EGFR kinase inhibition IC50
Epidermal Growth Factor Receptor (EGFR), sequence (P00533 25-1210): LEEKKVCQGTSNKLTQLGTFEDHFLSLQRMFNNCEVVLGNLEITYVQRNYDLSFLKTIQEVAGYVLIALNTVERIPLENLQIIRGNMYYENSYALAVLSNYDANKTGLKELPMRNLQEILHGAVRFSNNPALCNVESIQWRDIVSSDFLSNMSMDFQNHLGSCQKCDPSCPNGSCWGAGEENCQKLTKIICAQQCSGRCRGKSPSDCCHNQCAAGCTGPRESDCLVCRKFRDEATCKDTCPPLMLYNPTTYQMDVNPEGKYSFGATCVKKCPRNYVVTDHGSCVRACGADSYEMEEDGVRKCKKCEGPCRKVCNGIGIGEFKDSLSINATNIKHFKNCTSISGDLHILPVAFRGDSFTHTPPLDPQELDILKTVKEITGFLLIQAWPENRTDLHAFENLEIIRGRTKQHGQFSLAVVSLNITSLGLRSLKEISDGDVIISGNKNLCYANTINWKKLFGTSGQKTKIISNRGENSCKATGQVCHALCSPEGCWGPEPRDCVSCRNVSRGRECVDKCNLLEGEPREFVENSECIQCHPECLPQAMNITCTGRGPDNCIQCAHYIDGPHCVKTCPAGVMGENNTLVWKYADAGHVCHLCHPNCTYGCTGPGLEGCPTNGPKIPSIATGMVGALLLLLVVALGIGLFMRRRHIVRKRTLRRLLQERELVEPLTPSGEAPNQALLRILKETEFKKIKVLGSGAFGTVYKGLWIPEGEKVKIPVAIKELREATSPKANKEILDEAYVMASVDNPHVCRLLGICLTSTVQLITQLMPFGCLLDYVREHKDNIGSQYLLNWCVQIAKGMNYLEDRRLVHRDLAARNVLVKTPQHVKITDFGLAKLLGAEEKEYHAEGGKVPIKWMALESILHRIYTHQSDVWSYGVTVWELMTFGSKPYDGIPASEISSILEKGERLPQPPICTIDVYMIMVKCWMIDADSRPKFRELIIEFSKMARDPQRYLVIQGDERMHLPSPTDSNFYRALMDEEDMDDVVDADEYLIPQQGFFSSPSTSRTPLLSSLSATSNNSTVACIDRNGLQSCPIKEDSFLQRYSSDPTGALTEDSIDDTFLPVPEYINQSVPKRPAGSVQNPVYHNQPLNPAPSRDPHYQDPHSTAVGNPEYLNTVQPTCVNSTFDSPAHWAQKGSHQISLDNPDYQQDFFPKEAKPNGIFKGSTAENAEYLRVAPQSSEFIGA
In short: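 EGFR purified from A431 cells was preincubated with compound 15 min at 22° C in pH 7.0 Hepes buffer with MgCl2, MnCl2 and vanadate before reaction with a biotinylated peptide. After EDTA stop, phosphopeptide was detected by TR-FRET (anti-phosphotyrosine Tb-cryptate, streptavidin-XL665) as the 665/620 nm emission ratio.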

| SMILES | IC50 [1] | IC50 ([2]; values given in μM) | IC50 ([2]; unit inferred) |
| --- | --- | --- | --- |
| COc1cc2nc(C)nc(NC(C)c3ccc(-c4ccccc4CN4CC(N(C)C)C4)s3)c2cc1OC (stereo not drawn) [Example 319, N-{1-[5-(2-{[3-(dimethylamino)azetidin-1-yl]methyl}phenyl)thiophen-2-yl]ethyl}-6,7-dimethoxy-2-methylquinazolin-4-amine] | 119 nM | > 20 µM |  |
| COc1cc2nc(C)nc(NC(C)c3ccc(-c4ccccc4CN4CC(F)(F)C4)s3)c2cc1OC (stereo not drawn) [Example 320, N-[1-(5-{2-[(3,3-difluoroazetidin-1-yl)methyl]phenyl}thiophen-2-yl)ethyl]-6,7-dimethoxy-2-methylquinazolin-4-amine] | 1300 nM | > 20 µM |  |
| COc1cc2nc(C)nc(NC(C)c3ccc(-c4ccccc4CN(C)CC(F)(F)F)s3)c2cc1OC (stereo not drawn) [Example 321, 6,7-di methoxy-2-methyl-N-{1-[5-(2-{[methyl(2,2,2-trifluoroethyl)amino]methyl}phenyl)thiophen-2-yl]ethyl}quinazolin-4-amine] | 6240 nM | > 20 µM |  |
| COc1cc2nc(C)nc(NC(C)c3ccc(-c4ccccc4CN4CC(F)C4)s3)c2cc1OC (stereo not drawn) [Example 322, N-[1-(5-{2-[(3-fluoroazetidin-1-yl)methyl]phenyl}thiophen-2-yl)ethyl]-6,7-dimethoxy-2-methylquinazolin-4-amine] | 247 nM | > 20 µM |  |
| COc1cc2nc(C)nc(NC(C)c3ccc(-c4ccc(Cl)cc4CN(C)C)s3)c2cc1OC (stereo not drawn) [Example 323, N-[1-(5-{4-chloro-2-[(dimethylamino)methyl]phenyl}thiophen-2-yl)ethyl]-6,7-dimethoxy-2-methylquinazolin-4-amine] | 72.9 nM | > 20 µM |  |
| COc1cc2nc(C)nc(NC(C)c3ccc(-c4ccccc4C(C)=O)s3)c2cc1OC (stereo not drawn) [Example 324, 1-[2-(5-{1-[(6,7-dimethoxy-2-methylquinazolin-4-yl)amino]ethyl}thiophen-2-yl)phenyl]ethanone] | 3380 nM | > 20 µM |  |
| COc1cc2nc(C)nc(NC(C)c3ccc(-c4ccccc4OCCN4CCCC4)s3)c2cc1OC (stereo not drawn) [Example 325, 6,7-di methoxy-2-methyl-N-[1-(5-{2-[2-(pyrrolidin-1-yl)ethoxy]phenyl}thiophen-2-yl)ethyl]quinazolin-4-amine] | 443 nM | > 20 µM |  |
| COc1cc2nc(C)nc(NC(C)c3cccc4sc(C)cc34)c2cc1OC (stereo not drawn) [Example 330, 6,7-dimethoxy-2-methyl-N-[1-(2-methyl-1-benzothiophen-4-yl)ethyl]quinazolin-4-amine] | 365 nM | > 20 µM |  |
| COc1cc2nc(C)nc(NC(C)c3ccnc4sccc34)c2cc1OC (stereo not drawn) [Example 331, 6,7-dimethoxy-2-methyl-N-[1-(thieno[2,3-b]pyridin-4-yl)ethyl]quinazolin-4-amine] | 992 nM | > 20 µM |  |
| COc1cc2nc(C)nc(NC(C)c3cncc4sccc34)c2cc1OC (stereo not drawn) [Example 332, 6,7-dimethoxy-2-methyl-N-[1-(thieno[2,3-c]pyridin-4-yl)ethyl]quinazolin-4-amine] | 2620 nM | > 20 µM |  |
| COc1cc2nc(C)nc(NC(C)c3nccc4sccc34)c2cc1OC (stereo not drawn) [Example 333, 6,7-dimethoxy-2-methyl-N-[1-(thieno[3,2-c]pyridin-4-yl)ethyl]quinazolin-4-amine] | 6200 nM |  | 16.4 µM |
| COc1cc2nc(C)nc(N[C@H](C)c3cccc(-c4c(C)n[nH]c4C)c3)c2cc1OC [Example 334, N-{(1R)-1-[3-(3,5-dimethyl-1H-pyrazol-4-yl)phenyl]ethyl}-6,7-dimethoxy-2-methylquinazolin-4-amine] | 773 nM | > 20 µM |  |
| COc1cc2nc(C)nc(N[C@H](C)c3cccc(-c4cn[nH]c4C)c3)c2cc1OC [Example 335, 6,7-dimethoxy-2-methyl-N-{(1R)-1-[3-(5-methyl-1H-pyrazol-4-yl)phenyl]ethyl}quinazolin-4-amine] | 371 nM | > 20 µM |  |
| COc1cc2nc(C)nc(N[C@H](C)c3cccc(-c4c(C)noc4C)c3)c2cc1OC [Example 336, N-{(1R)-1-[3-(3,5-dimethyl-1,2-oxazol-4-yl)phenyl]ethyl}-6,7-dimethoxy-2-methyl-quinazolin-4-amine] | 1260 nM | > 20 µM |  |
| COc1cc2nc(C)nc(N[C@H](C)c3cccc(-c4ccn[nH]4)c3)c2cc1OC [Example 337, 6,7-dimethoxy-2-methyl-N-{(1R)-1-[3-(1H-pyrazol-5-yl)phenyl]ethyl}quinazolin-4-amine] | 806 nM | > 20 µM |  |
| COc1cc2nc(C)nc(N[C@H](C)c3cccc(-c4cnn(C)c4)c3)c2cc1OC [Example 338, 6,7-dimethoxy-2-methyl-N-{(1R)-1-[3-(1-methyl-1H-pyrazol-4-yl)phenyl]ethyl}quinazolin-4-amine] | 838 nM | > 20 µM |  |
| COc1cc2nc(C)nc(N[C@H](C)c3cccc(-c4ccnn4C)c3)c2cc1OC [Example 339, 6,7-dimethoxy-2-methyl-N-{(1R)-1-[3-(1-methyl-1H-pyrazol-5-yl)phenyl]ethyl}quinazolin-4-amine] | 1380 nM | > 20 µM |  |
| COc1cc2nc(C)nc(N[C@H](C)c3cccc(-n4ccnc4)c3)c2cc1OC [Example 340, N-{(1R)-1-[3-(1H-imidazol-1-yl)phenyl]ethyl}-6,7-dimethoxy-2-methylquinazolin-4-amine] | 909 nM | > 20 µM |  |
